Patent US10550102B2, “Indane and indoline derivatives and the use thereof as soluble guanylate cyclase activators” (NOVARTIS AG, priority 2014, dated 2020)

Each compound was assayed against soluble guanylate cyclase (human GUCYA3 and GUCYB3) overexpressed in CHO cells (Homo sapiens (Human), UniProt Q02108+Q02153) (assay: CHO cellular assay (cGMP production, Cisbio cGMP HTRF kit)). Conditions: CHO GUCY clone 8E10, cGMP production, assay buffer with 1 mM IBMX and 20 uM ODQ, 1 h room temperature; minimum quantification limit 0.5 nM (listed 0.5 nM means ≤0.5 nM); read-out: EC50.
Assay type: cell-based
Text: Chinese hamster ovary (CHO) cells overexpressing soluble guanylate cyclase were generated to test the effect of sGC activators in a cellular context. Human cDNAs for GUCYA3 (RefSeq: NM_000856.3) and GUCYB3 (RefSeq: NM_000857.1) were amplified by PCR from a HUVEC (Human Umbilical Vein Endothelial Cells) cDNA library and cloned into mammalian expression vectors. CHO K1 cells (ATCC CCL-61) were transfected using Lipofectamine 2000 following manufacturer's instructions and stably expressing clones were identified by antibiotic selection. CHO GUCY clone 8E10 was used for subsequent experiments. Cells were seeded at a density of 3000 cells/well in white 384-well proxyplates (Perkin Elmer) and incubated overnight, then the medium was removed and cells were washed with assay buffer (HBSS, 0.1% BSA. 1 mM IBMX, 20 uM ODQ). sGC activators were serially diluted in DMSO, then diluted in assay buffer prior to adding to cells (10 ul/well, final DMSO concentration 0.5%). Cells were incubated with compounds for 1 h room temperature, then assayed for cGMP production using Cisbio cGMP HTRF kit (62GM2PEC) according to manufacturer's instructions. The EC50s are calculated based on the amount of cGMP interpolated from the standard curve, using a 4-parameter sigmoidal dose-response.

Chain of soluble guanylate cyclase (human GUCYA3 and GUCYB3) overexpressed in CHO cells (Q02108 whole entry partner): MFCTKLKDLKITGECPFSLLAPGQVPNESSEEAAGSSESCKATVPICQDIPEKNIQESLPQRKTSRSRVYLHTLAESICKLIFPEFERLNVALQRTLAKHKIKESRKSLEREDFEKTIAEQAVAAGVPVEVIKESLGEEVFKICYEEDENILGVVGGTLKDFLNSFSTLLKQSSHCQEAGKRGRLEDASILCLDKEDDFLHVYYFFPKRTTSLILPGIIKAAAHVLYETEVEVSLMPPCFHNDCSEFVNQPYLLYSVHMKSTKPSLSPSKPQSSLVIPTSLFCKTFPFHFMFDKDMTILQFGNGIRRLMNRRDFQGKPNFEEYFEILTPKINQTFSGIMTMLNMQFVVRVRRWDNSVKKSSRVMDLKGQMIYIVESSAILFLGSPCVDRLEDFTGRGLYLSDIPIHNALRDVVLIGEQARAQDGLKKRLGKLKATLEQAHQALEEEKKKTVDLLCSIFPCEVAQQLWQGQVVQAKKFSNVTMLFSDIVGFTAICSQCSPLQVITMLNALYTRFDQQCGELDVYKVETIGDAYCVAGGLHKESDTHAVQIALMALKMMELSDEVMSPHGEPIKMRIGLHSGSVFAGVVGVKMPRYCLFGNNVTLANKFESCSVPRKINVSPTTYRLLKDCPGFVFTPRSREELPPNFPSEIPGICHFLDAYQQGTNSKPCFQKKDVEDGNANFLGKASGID
Chain of soluble guanylate cyclase (human GUCYA3 and GUCYB3) overexpressed in CHO cells (Q02153 whole entry): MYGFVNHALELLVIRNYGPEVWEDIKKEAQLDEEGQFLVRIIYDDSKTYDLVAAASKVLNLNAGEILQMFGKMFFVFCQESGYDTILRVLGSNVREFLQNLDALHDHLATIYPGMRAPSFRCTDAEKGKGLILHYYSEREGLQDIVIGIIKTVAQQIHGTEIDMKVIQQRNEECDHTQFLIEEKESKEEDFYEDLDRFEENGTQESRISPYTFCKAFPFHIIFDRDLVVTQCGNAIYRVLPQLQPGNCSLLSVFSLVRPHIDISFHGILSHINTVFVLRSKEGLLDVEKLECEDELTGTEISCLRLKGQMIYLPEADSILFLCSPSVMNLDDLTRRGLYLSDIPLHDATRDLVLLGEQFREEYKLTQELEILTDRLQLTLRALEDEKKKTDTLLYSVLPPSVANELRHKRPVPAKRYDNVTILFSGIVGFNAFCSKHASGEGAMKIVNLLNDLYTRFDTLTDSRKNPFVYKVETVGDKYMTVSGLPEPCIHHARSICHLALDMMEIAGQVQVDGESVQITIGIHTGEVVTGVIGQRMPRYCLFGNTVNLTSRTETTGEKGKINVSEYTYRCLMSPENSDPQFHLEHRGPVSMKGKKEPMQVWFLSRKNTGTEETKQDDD

Compound	EC50 [nM]
Cc1cc(C2CCN(C(=O)C3CC3)CC2)ccc1CC1CCc2cccc(-c3cccc(-n4ncc(C(=O)O)c4C)n3)c21 (single isomer, unassigned; (+)) [Example 37. b). (+), (+)-1-(6-(3-(4-(1-(Cyclopropanecarbonyl)piperidin-4-yl)-2-methylbenzyl)-2,3-dihydro-1H-inden-4-yl)pyridin-2-yl)-5-methyl-1H-pyrazole-4-carboxylic acid]	≤ 0.5
CCc1cc(CC2CCc3cccc(-c4cccc(-n5ncc(C(=O)O)c5CC)n4)c32)ccc1C1CCN(C(=O)[C@H](C)O)CC1 (single isomer, unassigned; (+)) [Example 39. b). (+)]	≤ 0.5
CCc1cc(CC2CCc3cccc(-c4cccc(-n5ncc(C(=O)O)c5CC)n4)c32)ccc1C1CCN(C(=O)OC)CC1 (single isomer, unassigned; (+)) [Example 41. b). (+), (+)-5-ethyl-1-(6-(3-(3-ethyl-4-(1-(methoxycarbonyl)piperidin-4-yl)benzyl)-2,3-dihydro-1H-inden-4-yl)pyridin-2-yl)-1H-pyrazole-4-carboxylic acid]	≤ 0.5
CCc1c(C(=O)O)cnn1-c1cccc(-c2cccc3c2C(Cc2ccc(C4CCN(C(=O)OC)CC4)cc2C)CC3)n1 (single isomer, unassigned; (+)) [Example 42. b). (+), (+)-5-ethyl-1-(6-(3-(4-(1-(methoxycarbonyl)piperidin-4-yl)-2-methylbenzyl)-2,3-dihydro-1H-inden-4-yl)pyridin-2-yl)-1H-pyrazole-4-carboxylic acid]	≤ 0.5
Cc1cc(C2CCN(C(=O)C3CCC3)CC2)ccc1NC1CCc2cccc(-c3cccc(-n4ncc(C(=O)O)c4C)n3)c21 (single isomer, unassigned; (+)) [Example 45a]	≤ 0.5
Cc1cc(C2CCN(C(=O)[C@H](C)O)CC2)ccc1NC1CCc2cccc(-c3cccc(-n4ncc(C(=O)O)c4C)n3)c21 (single isomer, unassigned; (+)) [Example 47a]	≤ 0.5
CCc1cc(NC2CCc3cccc(-c4cccc(-n5ncc(C(=O)O)c5CC)n4)c32)ccc1C1CCN(C(=O)[C@H](C)O)CC1 (single isomer, unassigned; (+)) [Example 48a]	≤ 0.5
CCC[C@H](O)C(=O)N1CCC(c2ccc(NC3CCc4cccc(-c5cccc(-n6ncc(C(=O)O)c6CC)n5)c43)cc2CC)CC1 (single isomer, unassigned; (+)) [Example 49a]	≤ 0.5
CCc1cc(NC2CCc3cccc(-c4cccc(-n5ncc(C(=O)O)c5CC)n4)c32)ccc1C1CCN(C(=O)[C@@H](O)CC)CC1 (single isomer, unassigned; (+)) [Example 50a]	≤ 0.5
CCc1cc(NC2CCc3cccc(-c4cccc(-n5ncc(C(=O)O)c5CC)n4)c32)ccc1C1CCN(C(=O)OC(C)C)CC1 (single isomer, unassigned; (+)) [Example 51a]	≤ 0.5
Cc1cc(C2CCN(C(=O)C3CC3)CC2)ccc1NC1CCc2cccc(-c3cccc(-n4ncc(C(=O)O)c4C(F)F)c3)c21 (single isomer, unassigned; (+)) [Example 55-2, (+)-1-(3-(3-((4-(1-(Cyclopropanecarbonyl)piperidin-4-yl)-2-methylphenyl)amino)-2,3-dihydro-1H-inden-4-yl)phenyl)-5-(difluoromethyl)-1H-pyrazole-4-carboxylic acid]	≤ 0.5
Cc1cc(C2CCN(C(=O)CO)CC2)ccc1NC1CCc2cccc(-c3cccc(-n4ncc(C(=O)O)c4C(F)(F)F)c3)c21 (single isomer, unassigned; (+)) [Example 56]	1
Cc1cc(C2CCN(C(=O)C3CC3)CC2)ccc1NC1CCc2cccc(-c3cccc(-n4ncc(C(=O)O)c4CC(F)(F)F)n3)c21 (single isomer, unassigned; (+)) [Example 57, (+)-1-(6-(3-((4-(1-(Cyclopropanecarbonyl)piperidin-4-yl)-2-methylphenyl)amino)-2,3-dihydro-1H-inden-4-yl)pyridin-2-yl)-6-(2,2,2-trifluoroethyl)-1H-pyrazole-4-carboxylic Acid]	1
CCc1nc(NC2CCc3cccc(-c4cccc(-n5ncc(C(=O)O)c5CC)n4)c32)ccc1C1CCN(C(=O)C2CC2)CC1 (single isomer, unassigned; (+)) [Example 63a, (+)-1-(6-(3-((5-(1-(Cyclopropanecarbonyl)piperidin-4-yl)-6-ethylpyridin-2-yl)amino)-2,3-dihydro-1H-inden-4-yl)pyridin-2-yl)-5-ethyl-1H-pyrazole-4-carboxylic Acid]	2
Cc1cc(C2CCN(C(=O)C3CC3)CC2)ccc1OC1CCc2cccc(-c3cccc(-n4ncc(C(=O)O)c4C(F)(F)F)c3)c21 (single isomer, unassigned; (+)) [Example (+)-1. b), (+)-1-(3-(3-(4-(1-(cyclopropanecarbonyl)piperidin-4-yl)-2-methylphenoxy)-2,3-dihydro-1H-inden-4-yl)phenyl)-5-(trifluoromethyl)-1H-pyrazole-4-carboxylic acid]	≤ 0.5
Cc1cc(C2CCN(C(=O)C3CC3)CC2)ccc1NC1CCc2cccc(-c3cccc(-n4ncc(C(=O)O)c4C(F)(F)F)n3)c21 (single isomer, unassigned; (+)) [Example (+)-8. b), (+)-1-(6-(3-((4-(1-(cyclopropanecarbonyl)piperidin-4-yl)-2-methylphenyl)amino)-2,3-dihydro-1H-inden-4-yl)pyridin-2-yl)-5-(trifluoromethyl)-1H-pyrazole-4-carboxylic acid]	≤ 0.5
CCc1cc(CC2CCc3cccc(-c4cccc(-n5ncc(C(=O)O)c5CC)n4)c32)ccc1C1CCN(C(=O)C2CC2)CC1 (single isomer, unassigned; (-)) [38-1 (−), (−)-1-(6-(3-(4-(1-(cyclopropanecarbonyl)piperidin-4-yl)-3-ethylbenzyl)-2,3-dihydro-1H-inden-4-yl)pyridin-2-yl)-5-ethyl-1H-pyrazole-4-carboxylic acid]	17
CCc1cc(CC2CCc3cccc(-c4cccc(-n5ncc(C(=O)O)c5C)n4)c32)ccc1C1CCN(C(=O)C2CC2)CC1 (single isomer, unassigned; (-)) [38-2 (−), (−)-1-(6-(3-(4-(1-(cyclopropanecarbonyl)piperidin-4-yl)-3-ethylbenzyl)-2,3-dihydro-1H-inden-4-yl)pyridin-2-yl)-5-methyl-1H-pyrazole-4-carboxylic acid]	9
CCc1c(C(=O)O)cnn1-c1cccc(-c2cccc3c2C(Cc2ccc(C4CCN(C(=O)C5CC5)CC4)cc2C)CC3)n1 (single isomer, unassigned; (-)) [38-3 (−), (−)-1-(6-(3-(4-(1-(cyclopropanecarbonyl)piperidin-4-yl)-2-methylbenzyl)-2,3-dihydro-1H-inden-4-yl)pyridin-2-yl)-5-ethyl-1H-pyrazole-4-carboxylic acid]	33
CCC[C@H](O)C(=O)N1CCC(c2ccc(CC3CCc4cccc(-c5cccc(-n6ncc(C(=O)O)c6CC)n5)c43)cc2CC)CC1 (single isomer, unassigned; (-)) [40-1 (−)]	15
CCc1c(C(=O)O)cnn1-c1cccc(-c2cccc3c2C(Cc2ccc(C4CCN(C(=O)[C@H](C)O)CC4)cc2C)CC3)n1 (single isomer, unassigned; (-)) [40-2 (−)]	25
CCC[C@H](O)C(=O)N1CCC(c2ccc(CC3CCc4cccc(-c5cccc(-n6ncc(C(=O)O)c6CC)n5)c43)c(C)c2)CC1 (single isomer, unassigned; (-)) [40-3 (−)]	49
Cc1cc2c(c(-c3cccc(-n4ncc(C(=O)O)c4C(F)(F)F)n3)c1)C(Nc1ccc(C3CCN(C(=O)C4CC4)CC3)cc1C)CC2 (single isomer, unassigned; (-)) [43 (−), (−)-1-(6-(3-((4-(1-(Cyclopropanecarbonyl)piperidin-4-yl)-2-methylphenyl)amino)-6-methyl-2,3-dihydro-1H-inden-4-yl)pyridin-2-yl)-5-(trifluoromethyl)-1H-pyrazole-4-carboxylic acid]	23
Cc1cc(C2CCN(C(=O)C3CC3)CC2)ccc1NC1CCc2cccc(-c3cccc(-n4ncc(C(=O)O)c4C)c3)c21 (single isomer, unassigned; (-)) [44 (−), (−)-1-(3-(3-((4-(1-(cyclopropanecarbonyl)piperidin-4-yl)-2-methylphenyl)amino)-2,3-dihydro-1H-inden-4-yl)phenyl)-5-methyl-1H-pyrazole-4-carboxylic acid]	9.9
Cc1cc(C2CCN(C(=O)C3CC3)CC2)ccc1CC1CCc2cccc(-c3cccc(-n4ncc(C(=O)O)c4C)c3)c21 (single isomer, unassigned; (-)) [54. b). (−), (−)-1-(3-(3-(4-(1-(cyclopropanecarbonyl)piperidin-4-yl)-2-methylbenzyl)-2,3-dihydro-1H-inden-4-yl)phenyl)-5-methyl-1H-pyrazole-4-carboxylic acid]	168
CCc1cc(CC2CCc3cccc(-c4cccc(-n5ncc(C(=O)O)c5C)c4)c32)ccc1C1CCN(C(=O)C2CC2)CC1 (single isomer, unassigned; (-)) [55-1 (−), (−)-1-(3-(3-(4-(1-(cyclopropanecarbonyl)piperidin-4-yl)-3-ethylbenzyl)-2,3-dihydro-1H-inden-4-yl)phenyl)-5-methyl-1H-pyrazole-4-carboxylic acid]	15
